Measurements: patent US11613531B2, “Inhibitors of RHO associated coiled-coil containing protein kinase” (Kadmon Corporation, LLC, priority 2017, dated 2023)
Where two headings read alike, the source gives them in different places.

Legend:
[1] = target: Recombinant ROCK1 (amino acids 1-535) (Homo sapiens (Human), UniProt Q13464); assay: Z′-Lyte kinase assay, ROCK1; format: biochemical; details: for inhibition at 0.5 µM: 0.5 μM compound, read-out: ROCK1 % inh. @ [conc]
Method in brief: (§1)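 Recombinant human ROCK1 (aa 1-535) or ROCK2 (aa 1-552) activity read by Z′-Lyte kinase assay. Percent inhibition at 1 μM compound was normalized to DMSO control; IC50 from 9-point 2-fold serial dilutions by nonlinear regression.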

[2] = target: Recombinant ROCK2 (amino acids 1-552) (Homo sapiens (Human), UniProt O75116); assay: Z′-Lyte kinase assay, ROCK2; format: biochemical; details: for inhibition at 1 µM: 1 μM compound; for inhibition at 1 µM / inhibition at 0.5 µM: read-out: ROCK2 % inh. @ [conc]; for inhibition at 0.5 µM: 0.5 μM compound
Method in brief: as §1

[3] = test system: ppMlc (T18/S19) levels in A7R5 cells; assay: A7R5 in-cell ELISA (pMLC); format: cell-based, Rat; details: Rattus norvegicus, A7R5, A7R5 cells; for inhibition at 1 µM: 1 μM compound; for inhibition at 1 µM / inhibition at 10 µM: read-out: pMLC % inh A7R5 @ [conc]; for inhibition at 10 µM: 10 μM compound
Method in brief: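 A7R5 rat aortic smooth muscle cells seeded 24 h, then treated 90 min with a 9-point 2-fold compound dilution series. Fixed cells probed for ppMlc (T18/S19) by colorimetric in-cell ELISA; cellular IC50 from nonlinear regression curve fit.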

[4] = test system: human ACTA2 gene promoter luciferase reporter in NIH3T3 cells; assay: NIH3T3 Acta2-promoter driven-luciferase assay; format: cell-based; details: NIH3T3, 24 h, read-out: NIH3T3 Acta2-luc, IC50
Procedure: NIH3T3 Cells Acta2-Promoter Driven-Luciferase Assay.
A NIH3T3 cell line stably expressing a luciferase reporter driven by the human ACTA2 gene promoter (−1000-1 bp) was established (NIH3T3-Acta2-luciferase). The cells were plated to confluence and treated with the test compounds plus TGFβ1 for 24 hr. Cells were then lysed and luciferase activity was measured using the LightSwitch luciferase kit from Active Motif.
In vitro activities for the compounds were measured with Z′-lyte kinase kit (ThermoFisher Scientific). The percent inhibition rate was calculated by normalizing the kinase activity value obtained with 1 μM compound treatment against DMSO control value and then applied to the formula, [1-(compound/DMSO)]×100%. IC50s were calculated using the nonlinear regression curve fit function of the GraphPad Prism software with kinase activities data measured with 9 points 2-fold serial dilution of compounds treatment. In cell pMLC IC50s were calculated with data obtained from A7R5 cell experiments. A7R5 cells were treated with 9 points 2-fold serial dilution of compounds and ppMlc (T18/S19) levels were determined to calculate cellular IC50 values of the compounds using the nonlinear regression curve fit function of the GraphPad Prism software. NIH3T3 cells stably expressing ACTA2-promoter-driven-luciferase were applied to measure ROCK compounds functional IC50s in cells. Cells were plated in 96 well plates to confluence and treated with 9 points serial dilution of compounds in combination with TGFβ1 for 24 hr. Luciferase activities were measured and compound's IC50s were calculated using the nonlinear regression curve fit function of the GraphPad Prism software.
ROCK inhibitors can be effectively rank ordered by ACTA2-promoter-driven-luciferase reporter cell assay. NIH3T3 cells stably expressing ACTA2-promoter-driven-luciferase were plated in 96 well plates to confluence and treated with 9 points serial dilution of compounds in combination with TGFβ1 for 24 hr. Luciferase activities were measured and compound's IC50s were calculated. By this assay multiple compounds of the invention gave IC50s under 200 nM.

[5] = 9 points 2-fold serial dilution
[6] = NIH3T3 cells, plus TGFβ1 for 24 hr

Recombinant ROCK1 (amino acids 1-535), sequence (Q13464 1-535): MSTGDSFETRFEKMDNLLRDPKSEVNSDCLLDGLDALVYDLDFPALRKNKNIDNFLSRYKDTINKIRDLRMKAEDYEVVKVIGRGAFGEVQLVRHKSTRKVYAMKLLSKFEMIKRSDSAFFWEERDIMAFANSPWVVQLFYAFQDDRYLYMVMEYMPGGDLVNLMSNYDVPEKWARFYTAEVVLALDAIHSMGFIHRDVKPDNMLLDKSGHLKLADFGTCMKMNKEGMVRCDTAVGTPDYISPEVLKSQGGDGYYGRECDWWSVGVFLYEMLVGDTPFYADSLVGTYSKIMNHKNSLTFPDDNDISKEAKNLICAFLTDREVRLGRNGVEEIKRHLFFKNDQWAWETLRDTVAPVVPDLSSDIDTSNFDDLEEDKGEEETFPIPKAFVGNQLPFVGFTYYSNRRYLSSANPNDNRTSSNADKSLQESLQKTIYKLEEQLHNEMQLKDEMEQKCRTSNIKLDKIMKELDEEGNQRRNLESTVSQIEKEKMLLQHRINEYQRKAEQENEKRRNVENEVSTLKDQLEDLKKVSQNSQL
Recombinant ROCK2 (amino acids 1-552), sequence (O75116 1-552): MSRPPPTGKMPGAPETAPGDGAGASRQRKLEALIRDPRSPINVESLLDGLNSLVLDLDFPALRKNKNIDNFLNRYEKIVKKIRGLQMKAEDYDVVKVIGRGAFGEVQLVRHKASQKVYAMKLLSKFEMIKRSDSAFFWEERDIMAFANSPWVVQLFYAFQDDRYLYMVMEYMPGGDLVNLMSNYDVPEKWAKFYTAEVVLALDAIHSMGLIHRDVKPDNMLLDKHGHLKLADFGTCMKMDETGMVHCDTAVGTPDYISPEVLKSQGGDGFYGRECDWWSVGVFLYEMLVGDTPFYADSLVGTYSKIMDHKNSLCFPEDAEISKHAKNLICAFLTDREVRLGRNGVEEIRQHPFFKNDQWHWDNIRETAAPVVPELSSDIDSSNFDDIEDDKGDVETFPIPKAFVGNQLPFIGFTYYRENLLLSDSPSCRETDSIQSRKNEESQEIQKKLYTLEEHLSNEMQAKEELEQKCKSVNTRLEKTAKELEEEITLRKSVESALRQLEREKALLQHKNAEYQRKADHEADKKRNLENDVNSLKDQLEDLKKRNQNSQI

SMILES	IC50 [2]	IC50 [3]	IC50 ([4]; with TGFβ1, 24 hr)	further results
Fc1cnc(N2CC3CCC(C2)N3)nc1Nc1ccc2[nH]ncc2c1 [Example 217, N-(2-(3,8-diazabicyclo[3.2.1]octan-3-yl)-5-fluoropyrimidin-4-yl)-1H-indazol-5-amine]	–	–	–	IC50 [1, 5]: 6 nM; IC50 [2, 5]: 28 nM; inhibition at 1 µM [3]: 51.2%; IC50 ([3]; ppMlc (T18/S19)): 127 nM; IC50 [4, 6]: 963 nM
Cc1cc(Nc2ccc3[nH]ncc3c2)nc(N2CCCNCC2C)n1 (stereo not shown) [Example 117, N-(6-methyl-2-(2-methyl-1,4-diazepan-1-yl)pyrimidin-4-yl)-1H-indazol-5-amine]	–	–	–	IC50 [1, 5]: 15 nM; IC50 [2, 5]: 45 nM; inhibition at 1 µM [3]: 50.6%; IC50 ([3]; ppMlc (T18/S19)): 168 nM; IC50 [4, 6]: 1270 nM
Cc1cc(Nc2ccc3[nH]ncc3c2)nc(N2CCNC(C)C2)n1 (stereo not shown) [Example 204, N-(6-methyl-2-(3-methylpiperazin-1-yl)pyrimidin-4-yl)-1H-indazol-5-amine]	–	–	–	IC50 [1, 5]: 20 nM; IC50 [2, 5]: 85 nM; inhibition at 10 µM [3]: 70%; IC50 ([3]; ppMlc (T18/S19)): 231 nM; IC50 [4, 6]: 1780 nM
Cc1cc(Nc2ccc3[nH]ncc3c2)nc(N2CCNCC2C)n1 (stereo not shown) [Example 207, N-(6-methyl-2-(2-methylpiperazin-1-yl)pyrimidin-4-yl)-1H-indazol-5-amine]	–	–	–	IC50 [1, 5]: 41 nM; inhibition at 1 µM [2]: 91%; IC50 [2, 5]: 104 nM; inhibition at 10 µM [3]: 52.3%; IC50 ([3]; ppMlc (T18/S19)): 351 nM; IC50 [4, 6]: 1260 nM
c1cc(Nc2ccc3[nH]ncc3c2)nc(N2C3CNCC2C3)n1 [Example 200, N-(2-(3,6-diazabicyclo[3.1.1]heptan-6-yl)pyrimidin-4-yl)-1H-indazol-5-amine]	–	–	–	IC50 [1, 5]: 28 nM; IC50 [2, 5]: 1.6 nM; inhibition at 10 µM [3]: 49.8%; IC50 ([3]; ppMlc (T18/S19)): 275 nM; IC50 [4, 6]: 1600 nM
Oc1nc(N2C3CCC2CNC3)nc(Nc2ccc3[nH]ncc3c2)c1F [Example 320, 6-((1H-indazol-5-yl)amino)-2-(3,8-diazabicyclo[3.2.1]octan-8-yl)-5-fluoropyrimidin-4-ol]	18 nM	> 5000 nM	> 5000 nM	IC50 [1]: 8.7 nM; inhibition at 0.5 µM [1]: 95%; inhibition at 0.5 µM [2]: 97%
c1cc2[nH]ncc2cc1Nc1nc(N2C3CNCC2C3)ncc1C1CC1 [Example 308, N-(2-(3,6-diazabicyclo[3.1.1]heptan-6-yl)-5-cyclopropylpyrimidin-4-yl)-1H-indazol-5-amine]	15 nM	377 nM	1240 nM	–
c1cc2[nH]ncc2cc1Nc1nc(N2C3CCC2CNC3)nc2c1COC2 [Example 278, 2-(3,8-diazabicyclo[3.2.1]octan-8-yl)-N-(1H-indazol-5-yl)-5,7-dihydrofuro[3,4-d]pyrimidin-4-amine]	6.6 nM	199 nM	1440 nM	inhibition at 1 µM [3]: 59.9%
Fc1cnc(N2C3CCC2CNC3)nc1Nc1ccc2[nH]ncc2c1 [Example 221, N-(2-(3,8-diazabicyclo[3.2.1]octan-8-yl)-5-fluoropyrimidin-4-yl)-1H-indazol-5-amine]	–	–	–	IC50 [2, 5]: 3.7 nM; inhibition at 1 µM [3]: 39.6%; IC50 ([3]; ppMlc (T18/S19)): 50 nM; IC50 [4, 6]: 243 nM
FC(F)(F)c1cnc(N2C3CCC2CNC3)nc1Nc1ccc2[nH]ncc2c1 [Example 298, N-(2-(3,8-diazabicyclo[3.2.1]octan-8-yl)-5-(trifluoromethyl)pyrimidin-4-yl)-1H-indazol-5-amine]	75 nM	1520 nM	> 5000 nM	–
Cc1cc(Nc2ccc3[nH]ncc3c2)nc(N2CC3CNC(C3)C2)n1 (stereo not shown) [Example 129, N-(2-(3,6-diazabicyclo[3.2.1]octan-3-yl)-6-methylpyrimidin-4-yl)-1H-indazol-5-amine]	18 nM	377 nM	2920 nM	inhibition at 1 µM [2]: 101%; inhibition at 1 µM [3]: 50.6%
c1cc2[nH]ncc2cc1Nc1nc(N2C3CNCC2C3)nc2c1CNC2 [Example 310, 2-(3,6-diazabicyclo[3.1.1]heptan-6-yl)-N-(1H-indazol-5-yl)-6,7-dihydro-5H-pyrrolo[3,4-d]pyrimidin-4-amine]	3.8 nM	> 5000 nM	> 5000 nM	–
FC(F)(F)c1cc(Nc2ccc3[nH]ncc3c2)nc(N2C3CCC2CNC3)n1 [Example 341, N-(2-(3,8-diazabicyclo[3.2.1]octan-8-yl)-6-(trifluoromethyl)pyrimidin-4-yl)-1H-indazol-5-amine]	5.8 nM	27 nM	58 nM	–
Cc1c(C#N)nc(N2C3CCC2CNC3)nc1Nc1ccc2[nH]ncc2c1 [Example 333, 6-((1H-indazol-5-yl)amino)-2-(3,8-diazabicyclo[3.2.1]octan-8-yl)-5-methylpyrimidine-4-carbonitrile]	44 nM	577 nM	1600 nM	–
Fc1cnc(N2CC3CNCC(C2)O3)nc1Nc1ccc2[nH]ncc2c1 [Example 324, N-(2-((1,5)-9-oxa-3,7-diazabicyclo[3.3.1]nonan-3-yl)-5-fluoropyrimidin-4-yl)-1H-indazol-5-amine]	268 nM	2080 nM	1370 nM	inhibition at 0.5 µM [2]: 71%
c1cc2[nH]ncc2cc1Nc1nc(N2C3CCC2CNC3)ncc1C1CC1 [Example 309, N-(2-(3,8-diazabicyclo[3.2.1]octan-8-yl)-5-cyclopropylpyrimidin-4-yl)-1H-indazol-5-amine]	117 nM	917 nM	3330 nM	–
COc1cc2[nH]ncc2cc1Nc1nc(N2C3CNCC2C3)ncc1Cl [Example 297, N-(2-(3,6-diazabicyclo[3.1.1]heptan-6-yl)-5-chloropyrimidin-4-yl)-6-methoxy-1H-indazol-5-amine]	84 nM	1430 nM	3790 nM	inhibition at 0.5 µM [2]: 87%
COc1nc(N2C3CCC2CNC3)nc(Nc2ccc3[nH]ncc3c2)c1F [Example 319, N-(2-(3,8-diazabicyclo[3.2.1]octan-8-yl)-5-fluoro-6-methoxypyrimidin-4-yl)-1H-indazol-5-amine]	1.1 nM	–	59 nM	inhibition at 0.5 µM [1]: 98%; inhibition at 0.5 µM [2]: 100%
Fc1cc2[nH]ncc2cc1Nc1nc(N2C3CCC2CNC3)ncc1Cl [Example 296, N-(2-(3,8-diazabicyclo[3.2.1]octan-8-yl)-5-chloropyrimidin-4-yl)-6-fluoro-1H-indazol-5-amine]	110 nM	860 nM	3120 nM	inhibition at 0.5 µM [2]: 90%
Cc1nc(N2C3CCC2CNC3)nc(Nc2ccc3[nH]ncc3c2)c1C#N [Example 343, 4-((1H-indazol-5-yl)amino)-2-(3,8-diazabicyclo[3.2.1]octan-8-yl)-6-methylpyrimidine-5-carbonitrile]	5.6 nM	127 nM	223 nM	–
CN1CCc2nc(N3C4CCC3CNC4)nc(Nc3ccc4[nH]ncc4c3)c2C1 [Example 299, 2-(3,8-diazabicyclo[3.2.1]octan-8-yl)-N-(1H-indazol-5-yl)-6-methyl-5,6,7,8-tetrahydropyrido[4,3-d]pyrimidin-4-amine]	34 nM	1200 nM	> 10000 nM	inhibition at 0.5 µM [2]: 70%
Cc1c(Cl)nc(N2C3CCC2CNC3)nc1Nc1ccc2[nH]ncc2c1 [Example 315, N-(2-(3,8-diazabicyclo[3.2.1]octan-8-yl)-6-chloro-5-methylpyrimidin-4-yl)-1H-indazol-5-amine]	26 nM	168 nM	1950 nM	–
Cc1cc(Nc2ccc3[nH]ncc3c2)nc(N2CCC3NCC3C2)n1 (stereo not shown) [Example 135, N-(2-(3,7-diazabicyclo[4.2.0]octan-3-yl)-6-methylpyrimidin-4-yl)-1H-indazol-5-amine]	9.7 nM	400 nM	2070 nM	inhibition at 1 µM [3]: 48.4%
CC1CNCCN1c1ncc(F)c(Nc2ccc3[nH]ncc3c2)n1 (stereo not shown) [Example 216, N-(5-fluoro-2-(2-methylpiperazin-1-yl)pyrimidin-4-yl)-1H-indazol-5-amine]	–	–	–	IC50 [2, 5]: 70 nM; inhibition at 1 µM [3]: 42.6%; IC50 ([3]; ppMlc (T18/S19)): 517 nM; IC50 [4, 6]: 1380 nM
